IC50 data for five compounds are collected here from patent US20140364438A1, “TRIAZOLOPYRIDINE DERIVATIVES AS A TYROSINE KINASE INHIBITOR” (HANMI PHARM. CO., LTD., priority 2012, published 2014).

By IC50 is commonly meant the point on the concentration scale where inhibition reaches its midpoint.

In assay [1] the target is T1, JAK3 (Homo sapiens, UniProt P52333).
T1 construct: purchased Invitrogen PV3855
Description: JAK3 kinase inhibitory activity, Z-Lyte Kinase Assay Kit. The class given is biochemical. As to conditions: 60 minutes at room temperature. On the procedure: (§1) The compounds prepared in Examples 1 to 5 were tested for JAK3 and BTK kinase inhibitory activity. Kinase inhibitory activity was measured by using Z-Lyte Kinase Assay Kit (Invitrogen), and JAK3 and BTK enzymes were purchased from Invitrogen (PV3855, PV3190).
(§2) Specifically, the compounds of Examples 1 to 5 were diluted with an aqueous solution of 4% DMSO to obtain solutions with concentrations in the range of 1 to 0.0001 μM. Each kinase was diluted to 1 to 10 ng/assay, and ATP was diluted to form a kinase buffer (50 mM HEPES, pH 7.4; 10 mM MgCl2; 1 mM EGTA; and 0.01% BRIJ-35) by calculating an approximate Kd value. The assays were performed in 384-well polystyrene flat-bottomed plates. Peptide substrate having a suitable concentration, 10 μL of mixed kinase solution and 5 μL of ATP solution having a concentration of 5 to 300 μM were added to 5 μL of the diluted solution of the compound, and allowed to react in a mixer for 60 minutes at room temperature. After 60 minutes, 10 μL of fluorescent labeling reagents was added to each mixture so as to allow fluorescent labeling of peptide substrates, followed by adding a finishing solution to complete the reaction. The fluorescence level was determined with a Molecular Device at 400 nm (excitation filter) and 520 nm (emission filter). The kinase inhibitory activities of the compounds were calculated in phosphorylation rates between 0˜400% against the control group (staurosporine or each of kinase inhibitor) according to the reference protocol of the kit, and percentage inhibition was determine and plotted against concentration (x-axis) to calculate 50% inhibitory concentration (IC50). The calculation and analysis of IC50 were carried out by using Microsoft Excel.

The target of assay [2] is T2, BTK (Homo sapiens, UniProt Q06187).
T2 construct: purchased Invitrogen PV3190
T2 sequence (Q06187 whole entry): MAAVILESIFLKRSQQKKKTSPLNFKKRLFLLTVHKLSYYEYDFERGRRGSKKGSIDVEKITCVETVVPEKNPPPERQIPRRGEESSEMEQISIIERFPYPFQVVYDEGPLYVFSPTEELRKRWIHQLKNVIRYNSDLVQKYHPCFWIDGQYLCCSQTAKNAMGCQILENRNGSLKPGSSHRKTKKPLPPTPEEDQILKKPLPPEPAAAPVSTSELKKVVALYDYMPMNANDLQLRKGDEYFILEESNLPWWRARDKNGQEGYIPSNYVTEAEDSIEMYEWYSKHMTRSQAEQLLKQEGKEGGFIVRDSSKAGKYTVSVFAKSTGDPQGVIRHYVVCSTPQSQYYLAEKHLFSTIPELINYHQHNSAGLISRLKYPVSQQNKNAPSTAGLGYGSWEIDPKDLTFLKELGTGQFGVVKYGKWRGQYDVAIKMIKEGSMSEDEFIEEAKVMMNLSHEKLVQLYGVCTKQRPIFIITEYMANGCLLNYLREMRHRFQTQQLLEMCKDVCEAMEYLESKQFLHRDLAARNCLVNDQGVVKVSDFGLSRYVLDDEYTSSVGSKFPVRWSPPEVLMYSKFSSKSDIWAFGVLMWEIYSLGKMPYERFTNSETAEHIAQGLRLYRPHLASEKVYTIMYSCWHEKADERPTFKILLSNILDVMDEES
Description: BTK kinase inhibitory activity, Z-Lyte Kinase Assay Kit. The class given is biochemical. As to conditions: 60 minutes at room temperature. On the procedure:
as §1, §2

SMILES strings stand for the structures.

T1 sequence (P52333 781-1124 limits assumed): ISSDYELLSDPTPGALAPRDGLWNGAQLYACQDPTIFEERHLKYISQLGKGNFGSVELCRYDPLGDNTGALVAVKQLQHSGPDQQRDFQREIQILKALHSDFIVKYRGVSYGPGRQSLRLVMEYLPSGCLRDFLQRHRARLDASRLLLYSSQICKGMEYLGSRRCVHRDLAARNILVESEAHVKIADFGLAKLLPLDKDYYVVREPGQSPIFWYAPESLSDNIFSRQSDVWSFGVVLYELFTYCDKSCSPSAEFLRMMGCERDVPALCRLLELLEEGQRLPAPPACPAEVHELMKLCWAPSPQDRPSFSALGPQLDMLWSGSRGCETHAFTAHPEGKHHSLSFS

With `C=CC(=O)Nc1cccc(Oc2cccn3nc(Nc4ccc(N5CCN(C)CC5)cc4)nc23)c1` [Example 1, N-(3-(2-(4-(4-methylpiperazin-1-yl)phenylamino)-[1,2,4]triazolo[1,5-a]pyridin-8-yloxy)phenyl)acrylamide], the IC50 is at most 0.1 µM in assay [1] (class symbol), 0.009 µM in assay [1] (numeric value in parentheses), at most 0.1 µM in assay [2] (class symbol) and 0.073 µM in assay [2] (numeric value in parentheses).
As for `C=CC(=O)Nc1cccc(Oc2cccn3nc(Nc4ccc(NC5CCN(C)CC5)c(F)c4)nc23)c1` [Example 2, N-(3-(2-(3-fluoro-4-(1-methylpiperidin-4-ylamino)phenylamino)-[1,2,4]triazolo[1,5-a]pyridin-8-yloxy)phenyl)acrylamide], the IC50 is at most 0.1 µM in assay [1] (class symbol) and 0.1 to 0.5 µM in assay [2] (class symbol).
Take `C=CC(=O)Nc1cccc(Oc2cccn3nc(Nc4ccc(CN(C)C)cc4)nc23)c1` [Example 3, N-(3-(2-(4-((dimethylamino)methyl)phenylamino)-[1,2,4]triazolo[1,5-a]pyridin-8-yloxy)phenyl)acrylamide]: the IC50 in assay [1] (class symbol) was at most 0.1 µM; in assay [2] (class symbol), 0.1 to 0.5 µM.
The matching figures for `C=CC(=O)Nc1cccc(Oc2cccn3nc(Nc4ccc(C(=O)N5CCN(C)CC5)cc4)nc23)c1` [Example 4, N-(3-(2-(4-(4-methylpiperazin-1-carbonyl)phenylamino)-[1,2,4]triazolo[1,5-a]pyridin-8-yloxy)phenyl)acrylamide]: at most 0.1 µM and 0.1 to 0.5 µM.
On the same counts, the results for `C=CC(=O)Nc1cccc(Oc2cccn3nc(Nc4ccc(N5CCN(C(C)C)CC5)cc4)nc23)c1` [Example 5, N-(3-(2-(4-(4-isopropylpiperazin-1-yl)phenylamino)-[1,2,4]triazolo[1,5-a]pyridin-8-yloxy)phenyl)acrylamide] are at most 0.1 µM and 0.5 to 1 µM.
